Measurements as given in US9969762B2.
≈ marks a conversion by molar mass, not a printed value. Like-named read-outs stand apart in the source and are kept apart here.

Experiments:
[1] = system: Agrobacterium tumefaciens, Pectobacterium atrosepticum and Dickeya dianthicola bacteria; assay: Antibacterial activity, summary statements over the bacteria tested; assay type: cell-based; conditions: for inhibition of the growth of the bacteria (in words): after 36 h of incubation at 30° C., compared with 4-NPO
Phytophthora infestans = assay: microbe, parasite or virus in culture; assay type: cell-based; conditions: after 6 days; 20 mg in 200 μl distilled water, spots of 10 μl
[2] = system: Agrobacterium tumefaciens; assay: Antibacterial activity (MIC and MBC) in TY medium; assay type: cell-based; conditions: 36 h of culture at 30° C.; for MIC: TY medium; for MBC: plated on TY agar
[3] = system: Pectobacterium atrosepticum; assay: Antibacterial activity (MIC and MBC) in TY medium; assay type: cell-based; conditions: 36 h of culture at 30° C.; for MIC: TY medium; for MBC: plated on TY agar
Dickeya dianthicola = assay: Antibacterial activity (MIC and MBC) in TY medium; assay type: cell-based; conditions: 36 h of culture at 30° C.; for MIC: TY medium; for MBC: plated on TY agar
Fusarium roseum = conditions: compound in methanol, more than 10 days at 20° C.
Method: (§1) The antifungal activity of the N-alkyl-glycosyl(di)amine derivatives of formula (I) and of the N-alkyl-glycamine derivatives of formula (III) synthesized according to the process of the invention was evaluated on two fungi: Fusarium roseum and Fusarium sambucinum.
(§2) For this, 500 μl of solution comprising the test derivative, dissolved in DMSO or methanol, are mixed with 19.5 ml of malt agar medium (Sigma aldrich) allowing the growth of these two Fusarium isolates. The test derivative is prepared in 2 ml of methanol, then mixed with 18 ml of malt agar medium (Sigma aldrich). A spot of 10 μl of culture of each Fusarium is then deposited at the center of each Petri dish. After 10 days of incubation at 20° C., the growth diameters are measured.
(§3) The range of concentrations of N-alkyl-glycosyl(di)amine derivatives of formula (I) tested ranges from 0.1 to 25 μmol/ml.
(§4) The Fusarium growth on media containing the various molecules is compared with that obtained only with DMSO or methanol.
(§5) The same antifungal evaluation protocol as the one previously described with the compound Ij was applied for other N-alkyl-glycosyl(di)amine derivatives of formula (I) and N-alkyl-glycamine derivatives of formula (III) at concentrations ranging from 1 to 20 μmol/ml.
(§6) 2 ml of solution comprising the test compound dissolved in methanol are mixed with 18 ml of agar malt medium (Sigma aldrich) allowing the growth of these two Fusarium isolates. A spot of 10 μl of culture of each Fusarium is then deposited at the center of each Petri dish. After more than 10 days of incubation at 20° C., the growth diameters are measured.

Fusarium sambucinum = conditions: compound in methanol, more than 10 days at 20° C.
Method: as §1, §2, §3, §4, §5, §6

| SMILES | bactericidal activity (in words) [1] | inhibition of the growth of the bacteria (in words) [1] | Average diameters of inhibition zone (Phytophthora infestans) | MIC [2] | MBC [2] | MIC [3] | MBC [3] | MIC (Dickeya dianthicola) | MBC (Dickeya dianthicola) | Inhibition of the growth of the Fusarium roseum fungi (Fusarium roseum; 1 μmol/ml) | Inhibition of the growth of the Fusarium roseum fungi (Fusarium roseum; 2.5 μmol/ml) | Inhibition of the growth of the Fusarium roseum fungi (Fusarium roseum; 5 μmol/ml) | Inhibition of the growth of the Fusarium sambucinum fungi (Fusarium sambucinum; 1 μmol/ml) | Inhibition of the growth of the Fusarium sambucinum fungi (Fusarium sambucinum; 2.5 μmol/ml) | Inhibition of the growth of the Fusarium sambucinum fungi (Fusarium sambucinum; 5 μmol/ml) |
| --- | --- | --- | --- | --- | --- | --- | --- | --- | --- | --- | --- | --- | --- | --- | --- |
| CCCCCCCCCCCCNCC(O)C(O)C(O)C(O)CO (stereo not drawn) [compound IIIc] | showed a bactericidal activity | inhibition of the growth of the bacteria was observed | 18 mm | >500 µg/mL | >500 µg/mL | 62.5 µg/mL (≈ 179 µM) | 62.5 µg/mL (≈ 179 µM) | >500 µg/mL | >500 µg/mL | 100% | 100% | 100% | 98% | 100% | 100% |
| CCCCCCCCCCCCNCC(O)C(O)C(O)C(C)O (stereo not drawn) [compound IIIa] | showed a bactericidal activity | inhibition of the growth of the bacteria was observed | 24 mm | 16 µg/mL (≈ 48 µM) | 62.5 µg/mL (≈ 187 µM) | 32 µg/mL (≈ 95.9 µM) | 32 µg/mL (≈ 95.9 µM) | 62.5 µg/mL (≈ 187 µM) | 62.5 µg/mL (≈ 187 µM) | 100% | 100% | 100% | 100% | 100% | 100% |
